Reference: patent EP2058306A1, “Heteroaryl-substituted 2-pyridinyl-methylamine derivatives” (SCHWARZ PHARMA AG, priority 2007, dated 2009)
Where two headings read alike, the source gives them in different places.

What was measured:
5-HT1A = biological target: T1, 5-HT1A (Sus scrofa, UniProt A0A4X1UTF5); assay: radioligand binding assay, serotonin 5-HT1A receptor, [3H]WAY 100635; settings: porcine cortex membranes, mean of two to five experiments in triplicate, read-out: Ki 5-HT1a
T1 construct: membrane preparations from porcine cortex; from tissue; host or cells: porcine cortex
T1 sequence (A0A4X1UTF5 1-422): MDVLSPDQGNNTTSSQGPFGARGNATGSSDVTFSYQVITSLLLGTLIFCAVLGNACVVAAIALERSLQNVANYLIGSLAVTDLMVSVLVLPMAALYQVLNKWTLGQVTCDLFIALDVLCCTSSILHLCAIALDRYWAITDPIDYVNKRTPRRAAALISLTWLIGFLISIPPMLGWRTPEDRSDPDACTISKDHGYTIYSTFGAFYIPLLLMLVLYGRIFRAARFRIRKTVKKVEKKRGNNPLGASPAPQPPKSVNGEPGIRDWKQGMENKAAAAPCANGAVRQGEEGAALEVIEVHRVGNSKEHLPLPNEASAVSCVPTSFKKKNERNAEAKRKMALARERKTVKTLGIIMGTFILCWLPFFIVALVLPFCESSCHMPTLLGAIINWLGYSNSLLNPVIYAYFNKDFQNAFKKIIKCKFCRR
Protocol: (§1) The investigation of receptor binding to the serotonin and adrenergic receptors was done according to a published procedure (Heindl, C. et al., Tetrahedron: Asymmetry (2003), 14, 3141-3152). In detail, for the determination of the binding properties to serotonin receptors membrane preparations from porcine cortex was incubated with the 5-HT1A selective radioligand [^3H]WAY 100635 or with the 5-HT2 selective compound [^3H]ketanserin. The measurement of alpha-1 and alpha-2 receptor binding was achieved when utilizing porcine cortical membranes and the selective radioligands [^3H]prazosin (for alpha-1) and [^3H]RX821002 in an assay similar to that described above.
(§2) The results of the binding experiments are summarized in Table 1 as mean values of two to five individual experiments each done in triplicate and expressed as Ki values in nM.

5-HT2 = biological target: T2, 5-HT2 (Sus scrofa, UniProt P50129); assay: radioligand binding assay, serotonin 5-HT2 receptor, [3H]ketanserin; set-up: species or system porcine
T2 construct: membrane preparations from porcine cortex; from tissue; host or cells: porcine cortex
T2 sequence (P50129 whole entry): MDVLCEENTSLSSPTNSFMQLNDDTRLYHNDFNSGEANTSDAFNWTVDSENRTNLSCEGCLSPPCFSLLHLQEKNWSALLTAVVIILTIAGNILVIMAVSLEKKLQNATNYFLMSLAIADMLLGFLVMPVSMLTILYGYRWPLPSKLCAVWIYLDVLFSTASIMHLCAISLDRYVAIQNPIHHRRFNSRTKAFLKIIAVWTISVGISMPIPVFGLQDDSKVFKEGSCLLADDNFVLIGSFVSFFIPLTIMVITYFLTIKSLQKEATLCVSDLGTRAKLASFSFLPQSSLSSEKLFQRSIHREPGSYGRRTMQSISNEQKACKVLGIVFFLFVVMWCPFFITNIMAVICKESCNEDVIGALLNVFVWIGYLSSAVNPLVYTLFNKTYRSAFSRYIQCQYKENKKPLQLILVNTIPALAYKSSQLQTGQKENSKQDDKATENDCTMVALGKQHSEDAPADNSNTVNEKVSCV

dopamine D1 receptor = biological target: T3, dopamine D1 receptor (Sus scrofa, UniProt P50130); assay: radioligand binding assay, dopamine D1 receptor, [3H]SCH 23390; settings: porcine striatum membranes, mean of two to five experiments in triplicate, read-out: Ki D1
T3 construct: native membrane preparations from porcine striatum; from tissue; host or cells: porcine striatum
T3 sequence (P50130 whole entry): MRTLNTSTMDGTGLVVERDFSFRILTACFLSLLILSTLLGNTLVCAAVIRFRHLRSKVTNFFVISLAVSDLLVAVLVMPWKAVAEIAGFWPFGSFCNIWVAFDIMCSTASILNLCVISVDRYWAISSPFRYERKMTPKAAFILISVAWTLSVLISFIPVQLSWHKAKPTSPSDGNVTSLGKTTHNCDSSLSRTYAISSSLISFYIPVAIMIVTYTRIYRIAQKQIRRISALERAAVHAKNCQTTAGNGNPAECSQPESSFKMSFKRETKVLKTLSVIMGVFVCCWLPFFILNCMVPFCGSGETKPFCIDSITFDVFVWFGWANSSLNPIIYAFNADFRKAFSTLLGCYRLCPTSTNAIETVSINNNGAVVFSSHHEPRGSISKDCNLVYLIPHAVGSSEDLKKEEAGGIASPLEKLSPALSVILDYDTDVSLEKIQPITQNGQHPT
Source text: (§3) Biological activity of the compounds has been determined in radioligand binding assays. These experiments have been done according to methods which are described in literature (Hübner, H. et al., J. Med. Chem. (2000), 43, 7562). For the determination of binding affinity to the receptors of the dopamine D2 family membranes were established carrying the human D2long, D2short, D3 or D4.4 receptor subtype stably expressed in Chinese hamster ovary cell lines. In principle, the binding experiments started when incubating an appropriate amount of membrane with the radioligand [^3H]spiperone and the particular test compounds used in a wide range of different concentrations from subnanomolar up to micromolar ones. In the same way, binding affinities of the test compounds to the dopamine D1 receptor were determined when using native membrane preparations from porcine striatum and the D1 selective radioligand [^3H]SCH 23390.
as §2

human D2long, D2short = human D2long, D2short (Homo sapiens, UniProt P14416); assay: biochemical; type: binding; settings: CHO cell membranes, [3H]spiperone; mean of two to five experiments in triplicate; read-out: Ki D2
Chain of human D2long, D2short (P14416 whole entry): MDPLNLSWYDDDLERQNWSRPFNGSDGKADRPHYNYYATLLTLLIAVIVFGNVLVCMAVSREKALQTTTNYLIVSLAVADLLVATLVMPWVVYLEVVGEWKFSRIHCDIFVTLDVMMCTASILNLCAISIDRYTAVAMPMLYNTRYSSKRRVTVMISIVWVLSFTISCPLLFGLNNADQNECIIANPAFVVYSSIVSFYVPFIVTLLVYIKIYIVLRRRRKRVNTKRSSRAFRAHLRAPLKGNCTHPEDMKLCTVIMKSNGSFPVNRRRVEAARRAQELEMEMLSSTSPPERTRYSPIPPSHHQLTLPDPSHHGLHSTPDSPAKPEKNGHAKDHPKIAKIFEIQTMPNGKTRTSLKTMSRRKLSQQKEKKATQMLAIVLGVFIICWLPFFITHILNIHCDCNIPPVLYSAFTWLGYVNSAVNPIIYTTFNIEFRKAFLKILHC
Protocol: as §3, with “These” for “Biological activity of the compounds has been determined in radioligand binding assays. These”, “ones.” for “ones. In the same way, binding affinities of the test compounds to the dopamine D1 receptor were determined when using native membrane preparations from porcine striatum and the D1 selective radioligand [^3H]SCH 23390.”

human D3 = human D3 (Homo sapiens, UniProt P35462); assay: radioligand binding assay, dopamine D3 receptor, [3H]spiperone; settings: CHO cell membranes, mean of two to five experiments in triplicate, read-out: Ki D3
Chain of human D3 (P35462 whole entry): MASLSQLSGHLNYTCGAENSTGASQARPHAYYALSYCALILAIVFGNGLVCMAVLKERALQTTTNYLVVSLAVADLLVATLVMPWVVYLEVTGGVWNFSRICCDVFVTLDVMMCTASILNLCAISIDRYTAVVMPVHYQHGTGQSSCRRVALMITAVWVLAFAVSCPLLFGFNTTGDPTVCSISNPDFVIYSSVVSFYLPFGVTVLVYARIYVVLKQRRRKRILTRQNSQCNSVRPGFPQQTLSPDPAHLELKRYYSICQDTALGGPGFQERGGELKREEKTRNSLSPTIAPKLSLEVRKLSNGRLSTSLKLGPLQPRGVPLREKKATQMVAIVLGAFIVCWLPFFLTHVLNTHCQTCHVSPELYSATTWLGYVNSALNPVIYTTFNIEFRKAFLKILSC
Protocol: as §3, with “These” for “Biological activity of the compounds has been determined in radioligand binding assays. These”, “ones.” for “ones. In the same way, binding affinities of the test compounds to the dopamine D1 receptor were determined when using native membrane preparations from porcine striatum and the D1 selective radioligand [^3H]SCH 23390.”

human D4.4 = biological target: T4, human D4.4 (Homo sapiens, UniProt P21917); assay: radioligand binding assay, dopamine D4.4 receptor, [3H]spiperone; settings: CHO cell membranes, mean of two to five experiments in triplicate, read-out: Ki D4.4
T4 sequence (P21917 1-419): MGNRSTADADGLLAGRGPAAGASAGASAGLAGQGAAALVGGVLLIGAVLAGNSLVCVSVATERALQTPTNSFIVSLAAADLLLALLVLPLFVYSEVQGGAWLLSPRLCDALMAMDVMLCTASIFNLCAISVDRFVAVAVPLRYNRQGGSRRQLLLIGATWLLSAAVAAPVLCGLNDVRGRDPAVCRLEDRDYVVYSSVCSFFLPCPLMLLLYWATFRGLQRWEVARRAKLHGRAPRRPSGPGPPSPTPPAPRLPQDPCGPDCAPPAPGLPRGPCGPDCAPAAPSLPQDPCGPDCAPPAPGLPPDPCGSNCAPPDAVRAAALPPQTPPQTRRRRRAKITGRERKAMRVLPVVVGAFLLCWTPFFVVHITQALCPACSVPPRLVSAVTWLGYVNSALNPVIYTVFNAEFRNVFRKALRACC
Source text: as §3, §2

alpha-1 = assay: radioligand binding assay, adrenergic alpha-1 receptor, [3H]prazosin; settings: porcine cortical membranes, mean of two to five experiments in triplicate, read-out: Ki alpha1
Protocol: as §1, §2

[1] = porcine cortex membranes, [3H]ketanserin, mean of two to five experiments in triplicate, read-out: Ki 5-HT2

Cc1ccc(CNCC2(F)CCN(C(=O)c3ccc(F)s3)CC2)nc1 [Example E2]
Ki (5-HT1A): < 0.05 µM
Ki (5-HT2): > 5 µM

Cc1ccc(CNCC2(F)CCN(C(=O)c3cc(Br)c(Br)s3)CC2)nc1 [Example E8, 4,5-Dibromothien-2-yl-[4-fluoro-4-[[(5-methylpyridin-2-ylmethyl)amino]methyl]-piperidin-1-yl]-methanone]
Ki (5-HT1A): < 0.05 µM
Ki (5-HT2; [1]): > 5 µM

CSc1ccc(C(=O)N2CCC(F)(CNCc3ccc(C)cn3)CC2)s1 [Example E12, [4-Fluoro-4-[[(5-methylpyridin-2-ylmethyl)amino]methyl]piperidin-1-yl]-5-mothylthiothien-2-yl-methanone]
Ki (dopamine D1 receptor): > 5 µM
Ki (human D2long, D2short): > 5 µM
Ki (human D3): > 5 µM
Ki (human D4.4): 0.501 to 5 µM
Ki (5-HT1A): < 0.05 µM
Ki (5-HT2): > 5 µM
Ki (alpha-1): 0.501 to 5 µM

Cc1ccc(CNCC2(F)CCN(C(=O)c3ccc(-c4ccccc4)s3)CC2)nc1 [Example E13, [4-Fluoro-4-[[(5-methylpyridin-2-ylmethyl)amino]methyl]piperidin-1-yl]-5-phenylthien-2-yl-mathanone]
Ki (dopamine D1 receptor): > 5 µM
Ki (human D2long, D2short): 0.501 to 5 µM
Ki (human D3): 0.501 to 5 µM
Ki (human D4.4): > 5 µM
Ki (5-HT1A): 0.05 to 0.5 µM
Ki (5-HT2): 0.501 to 5 µM
Ki (alpha-1): 0.501 to 5 µM

Cc1ccc(CNCC2(F)CCN(C(=O)c3ccc(-c4ccccn4)s3)CC2)nc1 [Example E14, [4-Fluoro-4-[[(5-methylpyridin-2-ylmethyl)amino]methyl]piperidin-1-yl]-5-pyridin-2-ylthien-2-yl-methanone]
Ki (dopamine D1 receptor): > 5 µM
Ki (human D2long, D2short): > 5 µM
Ki (human D3): > 5 µM
Ki (human D4.4): > 5 µM
Ki (5-HT1A): 0.05 to 0.5 µM
Ki (5-HT2; [1]): 0.501 to 5 µM
Ki (alpha-1): 0.501 to 5 µM

Cc1ccc(CNCC2(F)CCN(C(=O)c3ccc(-c4cccs4)s3)CC2)nc1 [Example E15, [2,2']Bithien-5-yl-[4-fluoro-4-[[(5-methylpyridin-2-ylmethyl)amino]methyl]piperidin-1-yl]-methanone]
Ki (dopamine D1 receptor): > 5 µM
Ki (human D2long, D2short): > 5 µM
Ki (human D3): 0.501 to 5 µM
Ki (human D4.4): > 5 µM
Ki (5-HT1A): 0.05 to 0.5 µM
Ki (5-HT2): 0.501 to 5 µM
Ki (alpha-1): 0.501 to 5 µM

Cc1ccc(CNCC2(F)CCN(C(=O)c3ccc(-c4csc(C)n4)s3)CC2)nc1 [Example E16, [4-Fluoro-4-[[(5-methylpyridin-2-ylmethyl)amino]methyl]piperidin-1-yl]-5-(2-methylthiazol-4-yl)thien-2-yl-methanone]
Ki (dopamine D1 receptor): > 5 µM
Ki (human D2long, D2short): > 5 µM
Ki (human D3): 0.501 to 5 µM
Ki (human D4.4): > 5 µM
Ki (5-HT1A): 0.05 to 0.5 µM
Ki (5-HT2; [1]): > 5 µM
Ki (alpha-1): 0.501 to 5 µM

Cc1ccc(CNCC2(F)CCN(C(=O)c3sccc3-n3cccc3)CC2)nc1 [Example E17, [4-Fluoro-4-[[(5-methylpyridin-2-ylmethyl)amino]methyl]piperidin-1-yl]-3-pyrrol-1-ylthion-2-yl-methanone]
Ki (dopamine D1 receptor): > 5 µM
Ki (human D2long, D2short): > 5 µM
Ki (human D3): > 5 µM
Ki (human D4.4): 0.501 to 5 µM
Ki (5-HT1A): 0.05 to 0.5 µM
Ki (5-HT2): > 5 µM
Ki (alpha-1): 0.501 to 5 µM
